According to patent US9914722B2, “Compounds for treating spinal muscular atrophy” (PTC Therapeutics Inc., priority 2012, dated 2018):
Entries after “also recorded” stand apart in the source; their conditions may differ.

What was measured:
[1] = test system: human SMN1 minigene full length and Δ7 mRNA (SMN1-A minigene); experiment: Human SMN1 minigene mRNA end-point semi-quantitative RT-PCR splicing assay in cultured cells; type: cell-based; conditions: HEK293H cells transfected with SMN1-A minigene, 7 hour, increasing concentrations, FIG. 8
Excerpt: Human SMN1 Minigene mRNA End-Point Semi-Quantitative RT-PCR Splicing Assay in Cultured Cells
The RT-PCR assay is used to visualize and quantify the levels of the human SMN1 minigene full length and Δ7 mRNA in primary cells and cell lines expressing the human SMN1 minigene construct treated with a test compound.
Using the procedure for the preparation of the SMN2 minigene construct described in Biological Example 1, the SMN1 version of the minigene is generated by replacing the sixth nucleotide of exon 7 (a thymine residue) of the SMN2-A minigene construct to cytosine using site-directed mutagenesis. Thus, similar to the SMN2-A minigene construct, the SMN1 minigene construct has a single adenine residue inserted after nucleic residue 48 of exon 7. The SMN1 minigene construct is referred to as SMN1-A.
Protocol. HEK293H cells (10,000 cells/well/199 μL) were transfected, using FuGENE-6 reagent, in a 96-well plate with 15 ng of the SMN1-A minigene reporter plasmid per well. Cells were incubated for 24 hours following transfection. Test compounds were serially diluted 3.16-fold in 100% DMSO to generate a 7-point concentration curve. A solution of test compound (1 μL, 200× in DMSO) was added to each test well. 1 μL DMSO was added to each control well. The plate was incubated for 7 hours in a cell culture incubator (37° C., 5% CO2, 100% relative humidity). The cells were then lysed in Cells-To-Ct lysis buffer and the lysates were stored at −80° C.
Two SMN spliced mRNA are generated from the SMN1 minigene. The term “SMN1 minigene FL” refers to the first spliced product containing exon 7, corresponding to full length SMN1 mRNA. The term “SMN1 minigene Δ7” refers to the second product lacking exon 7.
SMN1 minigene FL and SMN1 minigene Δ7 mRNA are amplified using the primers in Table 11. Primer SMN Forward C (SEQ ID NO. 11) hybridizes to a nucleotide sequence in exon 6 (nucleotide 43 to nucleotide 63), primer SMN Reverse A (SEQ ID NO. 2) hybridizes to a nucleotide sequence in the coding sequence of Firefly luciferase. The combination of these two oligonucleotides detects only SMN1 or SMN2 minigenes (RT-PCR) and will not detect endogenous SMN1 or SMN2 genes. Since the HEK293H cells used in Example 16 were transfected with only the human SMN1 minigene, RT-PCR can visualize and quantify only SMN1 minigene FL and SMN1 minigene Δ7 mRNA.
To synthesize cDNA, 5 μL of lysate, 4 μL of 5× iScript reaction mix, 1 μL of reverse transcriptase, and 10 μL of water are combined and incubated 5 min at 25° C. followed by 30 min at 42° C., followed by 5 min at 85° C. The cDNA solution is stored at −20° C.
To perform endpoint PCR, 5 μL of cDNA, 0.2 μL of 100 μM forward primer, 0.2 μL of 100 μM reverse primer, and 22.5 μL of polymerase super mix are combined in a 96 well semiskirted PCR plate. […]

[2] = test system: gems (Smn-dependent nuclear speckles) in SMA patient fibroblast cells; experiment: Gems count (Smn-dependent nuclear speckle count) assay; type: cell-based, human; conditions: Type 1 SMA patient fibroblasts, 48 hour, fluorescence microscopy, relative to DMSO, FIG. 7
Excerpt: Gems Count (Smn-Dependent Nuclear Speckle Count) Assay
The level of Smn protein directly correlates with the amount of nuclear foci, also known as gems, produced upon staining the cell with a fluorescently labeled anti-Smn antibody (Liu and Dreyfuss, EMBO J., 1996, 15:3555). Gems are multi-protein complexes whose formation is nucleated by the Smn protein and the gems count assay is used to evaluate the level of Smn protein in the cell. As described herein, the gems count assay is used to quantify the level of Smn protein in SMA patient fibroblast cells treated with a test compound.
Protocol: Cells are thawed and incubated in DMEM-10% FBS for 72 hours, then trypsinized, counted and resuspended to 100,000 cells/mL in DMEM-10% FBS. The cell suspension (2 mL) is plated in a 6-well cell culture plate with a sterile cover slip and incubated for 3 to 5 hours. Test compounds are serially diluted 3.16-fold in 100% DMSO to generate a 7-point dilution curve. […]
Cell culture medium is aspirated from the wells containing cover slips and gently washed three times with cold PBS. […] The number of gems is counted per ≧150 nuclei and % activation is calculated using DMSO and 10 nM bortezomib as controls. For each test compound, the cells are examined at all wavelengths to identify test compounds with inherent fluorescence.

SMILES | SMN1 minigene FL mRNA (gel band) [1] | SMN1 minigene Δ7 mRNA (gel band) [1] | nuclear speckle counts (gems) [2]
C[C@@H]1CN(c2ccc3oc(-c4cn5ccccc5n4)cc(=O)c3c2)C[C@H](C)N1 [Cpd 17, 6-[(3R,5S)-3,5-dimethylpiperazin-1-yl]-2-(imidazo[1,2-a]pyridin-2-yl)-4H-chromen-4-one] | progressively more SMN1 minigene FL mRNA; also recorded: dose dependent increase in SMN1 minigene full-length mRNA | less SMN1 minigene Δ7 mRNA; also recorded: dose dependent decrease in SMN1 minigene Δ7 mRNA | –
COc1ccc(-c2cc(=O)c3cc(N4CCN[C@@H](C)C4)ccc3o2)cc1F [Cpd 38, 2-(3-fluoro-4-methoxyphenyl)-6-[(3S)-3-methylpiperazin-1-yl]-4H-chromen-4-one] | progressively more SMN1 minigene FL mRNA; also recorded: dose dependent increase in SMN1 minigene full-length mRNA | less SMN1 minigene Δ7 mRNA; also recorded: dose dependent decrease in SMN1 minigene Δ7 mRNA | progressively more gems relative to cells treated with DMSO; also recorded: increase in nuclear speckle counts (gems)
